Results as given in patent publication US20230158025A1 (UNIVERSITY OF UTAH RESEARCH FOUNDATION, priority 2020, published 2023).
“And” between values parts separate entries of the source, which are not always exact repeats. Equal values may be shown once. Read-outs that look alike come from different tables or passages of the source.

Columns and labels:
[1] = target: recombinant human GALK1 (Homo sapiens, UniProt P51570); assay: hGALK1 biochemical activity assay (Kinase-Glo Plus, ATP depletion)
Method in brief: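 Recombinant human or mouse GALK1 (5 nM, with 100 μM galactose, in the added enzyme solution) was run with ATP (35 μM in the substrate solution) in HEPES pH 8.0 buffer. Compounds were tested at 11 1/3-step concentrations from 57.4 μM to 0.97 nM. After 1 h at room temperature, remaining ATP was read by Kinase-Glo Plus luminescence.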

[2] = target: recombinant mouse GALK1 (Mus musculus, UniProt Q9R0N0); assay: mGALK1 biochemical activity assay (Kinase-Glo Plus, ATP depletion)
Sequence of recombinant mouse GALK1 (Q9R0N0 whole entry): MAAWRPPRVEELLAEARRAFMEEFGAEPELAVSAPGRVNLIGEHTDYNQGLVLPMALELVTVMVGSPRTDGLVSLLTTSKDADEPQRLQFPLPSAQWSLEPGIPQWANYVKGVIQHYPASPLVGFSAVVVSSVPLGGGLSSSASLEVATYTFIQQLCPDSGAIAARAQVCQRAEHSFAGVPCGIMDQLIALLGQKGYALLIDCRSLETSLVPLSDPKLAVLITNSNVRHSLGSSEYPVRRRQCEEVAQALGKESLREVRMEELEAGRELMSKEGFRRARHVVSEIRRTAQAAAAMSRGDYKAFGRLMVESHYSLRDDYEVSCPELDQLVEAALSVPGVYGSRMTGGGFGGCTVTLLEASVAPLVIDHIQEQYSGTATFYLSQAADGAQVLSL
Method in brief: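 Recombinant GALK1 (5 nM) with 100 μM galactose; GALK1 turnover read as ATP depletion by Kinase-Glo Plus luminescence. Reaction ran 1 h at room temperature before detection reagent was added.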

[3] = target: T1, hGALK1m (Homo sapiens, UniProt P51570, E253A/K252A); assay: in vitro hGALK1 activity assay of the structure-based optimisation (Example 12, Tables 17-20); assay type: biochemical; details: for fold improvement of potency (IC50) versus parent compound: increase in potency relative to the unsubstituted parent
T1 construct: made in house; host or cells: E. coli HMS174
T1 sequence (P51570 whole entry K252A/E253A): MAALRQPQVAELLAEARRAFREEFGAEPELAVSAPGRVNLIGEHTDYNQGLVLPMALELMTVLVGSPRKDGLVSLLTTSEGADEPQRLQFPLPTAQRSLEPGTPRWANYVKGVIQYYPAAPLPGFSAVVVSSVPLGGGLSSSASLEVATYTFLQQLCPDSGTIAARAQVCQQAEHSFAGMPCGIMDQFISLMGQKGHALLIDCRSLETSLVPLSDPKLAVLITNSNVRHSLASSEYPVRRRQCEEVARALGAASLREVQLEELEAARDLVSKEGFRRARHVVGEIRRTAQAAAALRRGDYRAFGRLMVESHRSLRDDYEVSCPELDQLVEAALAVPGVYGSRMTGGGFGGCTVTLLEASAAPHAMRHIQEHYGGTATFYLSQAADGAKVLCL

[4] = PAMPA permeability
[5] = aqueous kinetic solubility
[6] = rat microsomal stability (RLM); details: for half-life: rat, rat liver microsomes
[7] = Tables 2-15, 35 μM ATP, 100 μM galactose, 1 h, bracketed figure after some values (e.g. −1.2) is undefined and not reported, read-out: hGALK IC50
[8] = recombinant human GALK1, Kinase-Glo Plus ATP depletion, read-out: hGALK
[9] = Tables 2-15, 35 μM ATP, 100 μM galactose, 1 h, bracketed figure after some values is undefined and not reported, read-out: mGALK IC50
[10] = recombinant mouse GALK1, Kinase-Glo Plus ATP depletion, read-out: mGALK
[11] = Tables 18-19, read-out: Max Response (%)
[12] = Tables 18-19 and text of Example 12
[13] = PAMPA, ADME P: PAMPA permeability (class), Tables 17-19, class probably colour-coded, colour lost
[14] = Tables 18-20 and text of Example 12
[15] = PAMPA, Perm. (1 × 10^−6 cm/sec)
[16] = 1 h, Table 17, read-out: Efficacy
[17] = Table 17, amide group optimization, no unit in table

Sequence of recombinant human GALK1 (P51570 whole entry): as the sequence (P51570 whole entry K252A/E253A) above, with A252K, A253E counted along it

Row | IC50 [1, 7] | IC50 [1, 8] | IC50 [2, 9] | IC50 [2, 10] | change of potency versus parent compound (in words) [3] | Emax [3, 11] | IC50 [3, 12] | Perm. (1 × 10^−6 cm/sec) [4] | Papp [4, 13] | Sol. [5] | Metab. Stabil. (m) ([6]; microsomal half-life) | half-life [6] | IC50 [3, 14] | fold improvement of potency (IC50) versus parent compound [3] | Papp [4, 15] | Emax [3, 16] | IC50 [3, 17] | Perm. (1 × 10^−6 cm/sec) ([4]; PAMPA) | Sol. ([5]; aqueous kinetic solubility) | Metab. Stabil. (m) ([6]; microsomal stability half-life) | Compound
1 | – | 2.43 µM | 6.11 µM | 6.11 µM | – | – | – | – | < 10 ×10⁻⁶ cm/s | – | – | < 10 min | – | – | – | 96% | 3.1 µM | <1 1 × 10^−6 cm/sec | 59.1 µg/mL | >30 m | CC1=C(C(=O)Nc2cccc(C(=O)O)c2)C(c2ccccc2Cl)N=C(Nc2nc3ccccc3o2)N1 (stereo not shown) [Compound 142, 3-(2-(benzo[d]oxazol-2-ylamino)-4-(2-chlorophenyl)-6-methyl-1,4-dihydropyrimidine-5-carboxamido)benzoic acid]
2 | 5.44 µM | – | 10.9 µM | – | – | – | – | – | < 10 ×10⁻⁶ cm/s | – | – | < 10 min | – | – | – | 95% | 3.9 µM | 23.75 1 × 10^−6 cm/sec | <1 µg/mL | >30 m | CC1=C(C(=O)Nc2nnc(C)s2)C(c2ccccc2Cl)N=C(Nc2nc3ccccc3o2)N1 (stereo not shown) [Compound 173, 2-(benzo[d]oxazol-2-ylamino)-4-(2-chlorophenyl)-6-methyl-N-(5-methyl-1,3,4-thiadiazol-2-yl)-1,4-dihydropyrimidine-5-carboxamide]
3 | 3.85 µM | 3.85 µM | 7.69 µM | 7.69 µM | – | – | – | – | < 10 ×10⁻⁶ cm/s | – | – | < 10 min | – | – | – | 96% | 3.4 µM | 207.3 1 × 10^−6 cm/sec | <1 µg/mL | >30 m | CC1=C(C(=O)Nc2nncs2)C(c2ccccc2Cl)N=C(Nc2nc3ccccc3o2)N1 (stereo not shown) [Compound 205, 2-(benzo[d]oxazol-2-ylamino)-4-(2-chlorophenyl)-6-methyl-N-(1,3,4-thiadiazol-2-yl)-1,4-dihydropyrimidine-5-carboxamide]
4 | 17.2 µM | 17.2 µM | 38.5 µM | 38.5 µM | significantly impaired the potency | 75% | > 15 µM | – | < 10 ×10⁻⁶ cm/s | >84 µg/mL | >30 m | < 10 min | – | – | – | – | – | – | – | – | CC1=C(C(=O)Nc2cc(C(=O)O)ccn2)C(c2cccc(S(N)(=O)=O)c2)N=C(Nc2nc3ccc(F)cc3o2)N1 (stereo not shown) [Compound 78, 2-(2-((6-fluorobenzo[d]oxazol-2-yl)amino)-6-methyl-4-(3-sulfamoylphenyl)-1,4-dihydropyrimidine-5-carboxamido)isonicotinic acid]
5 | 8.63 µM | 8.63 µM | 13.7 µM | 13.7 µM | significantly impaired the potency | – | – | – | < 10 ×10⁻⁶ cm/s | – | – | < 10 min | – | – | – | 48% | – | – | <1 µg/mL | 4.516 m | CC1=C(C(=O)NCc2nc3ccccc3n2C)C(c2ccccc2Cl)N=C(Nc2nc3ccccc3o2)N1 (stereo not shown) [Compound 234, 2-(benzo[d]oxazol-2-ylamino)-4-(2-chlorophenyl)-6-methyl-N-((1-methyl-1H-benzo[d]imidazol-2-yl)methyl)-1,4-dihydropyrimidine-5-carboxamide]
6 | 0.05 µM | 0.05 µM | 0.61 µM | 0.61 µM | – | – | – | – | – | – | – | – | 0.023 µM and 0.022 µM | – | 410 ×10⁻⁶ cm/s | – | – | – | <1 µg/mL | 14.08 m | CCn1cc(CNC(=O)C2=C(C)NC(Nc3nc4ccc(F)c(N)c4o3)=NC2c2ccc(C)cc2Cl)cn1 (racemic) [Compound 125, 2-((7-amino-6-fluorobenzo[d]oxazol-2-yl)amino)-4-(2-chloro-4-methylphenyl)-N-((1-ethyl-1H-pyrazol-4-yl)methyl)-6-methyl-1,4-dihydropyrimidine-5-carboxamide]

The remaining lines, values behind:

Row | Compound | IC50 [1, 7] | IC50 [1, 8] | IC50 [2, 9] | IC50 [2, 10] | change of potency versus parent compound (in words) [3] | Emax [3, 11] | IC50 [3, 12] | Perm. (1 × 10^−6 cm/sec) [4] | Papp [4, 13] | Sol. [5] | Metab. Stabil. (m) ([6]; microsomal half-life) | half-life [6] | IC50 [3, 14] | fold improvement of potency (IC50) versus parent compound [3] | Papp [4, 15] | Emax [3, 16] | IC50 [3, 17] | Perm. (1 × 10^−6 cm/sec) ([4]; PAMPA) | Sol. ([5]; aqueous kinetic solubility) | Metab. Stabil. (m) ([6]; microsomal stability half-life)
7 | CC1=C(C(=O)Nc2cc(C(=O)O)ccn2)C(c2cccc(C(N)=O)c2)N=C(Nc2nc3ccc(F)cc3o2)N1 (stereo not shown) [Compound 76, 2-(4-(3-carbamoylphenyl)-2-((6-fluorobenzo[d]oxazol-2-yl)amino)-6-methyl-1,4-dihydropyrimidine-5-carboxamido)isonicotinic acid] | 7.69 µM | 7.69 µM | 21.7 µM | 21.7 µM | significantly impaired the potency | 90% | 3.8 µM | <1 1 × 10^−6 cm/sec | < 10 ×10⁻⁶ cm/s | >78 µg/mL | >30 m | < 10 min | – | – | – | – | – | – | – | –
8 | CC1=C(C(=O)Nc2cc(C(=O)O)ccn2)C(c2ccc(C)cc2Cl)N=C(Nc2nc3ccc(F)cc3o2)N1 (racemic) [Compound 50, 2-(4-(2-chloro-4-methylphenyl)-2-((6-fluorobenzo[d]oxazol-2-yl)amino)-6-methyl-1,4-dihydropyrimidine-5-carboxamido)isonicotinic acid] | 0.39 µM | 0.39 µM | 3.06 µM | 3.06 µM | – | 100% | – | – | < 10 ×10⁻⁶ cm/s | 2.8 µg/mL | >30 m | < 10 min | 0.136 µM | 2 fold | < 1.5 ×10⁻⁶ cm/s | – | – | – | – | –
9 | COc1ccc2oc(NC3=NC(c4ccccc4Cl)C(C(=O)Nc4cc(C(=O)O)ccn4)=C(C)N3)nc2c1 (stereo not shown) [Compound 5, 2-(4-(2-chlorophenyl)-2-((5-methoxybenzo[d]oxazol-2-yl)amino)-6-methyl-1,4-dihydropyrimidine-5-carboxamido)isonicotinic acid] | – | 6.85 µM | 12.2 µM | 12.2 µM | – | 100% | 2 µM | <1 1 × 10^−6 cm/sec | < 10 ×10⁻⁶ cm/s | >79 µg/mL | >30 m | < 10 min | – | – | – | – | – | – | – | –
10 | CC1=C(C(=O)Nc2cc(C(=O)O)ccn2)C(c2cccc(C(F)(F)F)c2Cl)N=C(Nc2nc3ccc(F)cc3o2)N1 (stereo not shown) [Compound 51, 2-(4-(2-chloro-3-(trifluoromethyl)phenyl)-2-((6-fluorobenzo[d]oxazol-2-yl)amino)-6-methyl-1,4-dihydropyrimidine-5-carboxamido)isonicotinic acid] | 19.3 µM | 19.3 µM | 27.3 µM | 27.3 µM | compromised the potency | 97% | 2.4 µM | – | < 10 ×10⁻⁶ cm/s | 70.1 µg/mL | >30 m | < 10 min | – | – | – | – | – | – | – | –
11 | CC1=C(C(=O)Nc2cc(C(=O)O)ccn2)C(c2ccccc2Cl)N=C(Nc2nc3cccc(C(F)(F)F)c3o2)N1 (stereo not shown) [Compound 16, 2-(4-(2-chlorophenyl)-6-methyl-2-((7-(trifluoromethyl)benzo[d]oxazol-2-yl)amino)-1,4-dihydropyrimidine-5-carboxamido)isonicotinic acid] | – | 21.7 µM | 48.5 µM | 48.6 µM | greatly compromised the potencies | 100% | > 15 µM | <1 1 × 10^−6 cm/sec | < 10 ×10⁻⁶ cm/s | 61.135 µg/mL | >30 m | < 10 min | – | – | – | – | – | – | – | –
12 | CC1=C(C(=O)Nc2cc(C(=O)O)ccn2)C(c2ccccc2Cl)N=C(Nc2nc3cccc(C)c3o2)N1 (stereo not shown) [Compound 15, 2-(4-(2-chlorophenyl)-6-methyl-2-((7-methylbenzo[d]oxazol-2-yl)amino)-1,4-dihydropyrimidine-5-carboxamido)isonicotinic acid] | 0.97 µM | – | 6.85 µM | 6.85 µM | – | 100% | – | – | < 10 ×10⁻⁶ cm/s | >76 µg/mL | >30 m | < 10 min | 0.365 µM | 2.6 fold | – | – | – | – | – | –
13 | CC1=C(C(=O)Nc2cc(C(=O)O)ccn2)C(c2ccc(F)cc2Cl)N=C(Nc2nc3ccc(F)cc3o2)N1 (stereo not shown) [Compound 45, 2-(4-(2-chloro-4-fluorophenyl)-2-((6-fluorobenzo[d]oxazol-2-yl)amino)-6-methyl-1,4-dihydropyrimidine-5-carboxamido)isonicotinic acid] | – | 0.86 µM | 4.32 µM | 4.32 µM | little effect on the potency | 100% | – | <1 1 × 10^−6 cm/sec | < 10 ×10⁻⁶ cm/s | 40.6 µg/mL | >30 m | < 10 min | 0.258 µM | – | – | – | – | – | – | –
